ChEMBL document CHEMBL2046411, “Virtual Screening and X-ray Crystallography for Human Kallikrein 6 Inhibitors with an Amidinothiophene P1 Group” (ACS Med Chem Lett, 2012)

Target: Kallikrein-6 (Homo sapiens, UniProt Q92876)
Assay: Inhibition of N-terminus His6-tagged human kallikrein 6 expressed in baculovirus infected insect sf9 cells using Boc-Phe-Ser-Arg-AMC as substrate by fluorescence analysis

IC50: 1.5 µM
Structure (SMILES): COc1ccc2ccc(S(=O)(=O)N(Cc3ccccc3)[C@H]3CCN(Cc4ccc(C(=N)N)s4)C3=O)cc2c1
